Measurements taken from PubChem BioAssay AID222 (DTP/NCI, 2004).
“And” between values parts separate entries of the source, which are not always exact repeats. Identical values can stand only once. Inconclusive results and toxic doses are left out.

System: C57BL/6 mice, intracerebral ependymoblastoma, median survival T/C
Assay: NCI In Vivo Anticancer Drug Screen. Data for tumor model Ependymoblastoma (intracerebral) in C57BL/6 mice
Conditions: endpoint: median survival time, higher = longer survival
Protocol: The antitumor activity of compounds was measured in mice bearing transplantable tumors. Survival or tumor size were measured and the results are expressed as the measurement made in the treated group (T) divided by the measurement made in the vehicle treated control group (C). The tumor model used in this assay is Ependymoblastoma (intracerebral) in C57BL/6 mice

[1] = dose: 4.0 mg/kg/injection, schedule: Q01DX005 (ip), vehicle: saline with Tween-80
[2] = dose: 8.0 mg/kg/injection, schedule: Q01DX005 (ip), vehicle: saline with Tween-80
[3] = dose: 16.0 mg/kg/injection, schedule: Q01DX005 (ip), vehicle: saline with Tween-80
[4] = dose: 32.0 mg/kg/injection, schedule: Q01DX001 (ip), vehicle: Klucel (hydroxypropylcellulose) (HPC)
[5] = dose: 32.0 mg/kg/injection, schedule: Q01DX005 (ip), vehicle: saline with Tween-80
[6] = dose: 64.0 mg/kg/injection, schedule: Q01DX001 (ip), vehicle: Klucel (hydroxypropylcellulose) (HPC)
[7] = dose: 64.0 mg/kg/injection, schedule: Q01DX005 (ip), vehicle: saline with Tween-80
[8] = dose: 128.0 mg/kg/injection, schedule: Q01DX001 (ip), vehicle: Klucel (hydroxypropylcellulose) (HPC)
[9] = dose: 16.0 mg/kg/injection, schedule: Q01DX005 (ip), vehicle: Klucel (hydroxypropylcellulose) (HPC)
[10] = dose: 64.0 mg/kg/injection, schedule: Q01DX005 (ip), vehicle: Klucel (hydroxypropylcellulose) (HPC)

In the case of `CCOC(=O)C(CC(C)C)NC(=O)C(Cc1ccc(N(CCCl)CCCl)cc1)NC(C)=O` (stereo not drawn), the T/C (dose: 1.0 mg/kg/injection, schedule: Q01DX005 (ip), vehicle: Klucel (hydroxypropylcellulose) (HPC)) is reported as 103 % of control, the T/C (dose: 2.0 mg/kg/injection, schedule: Q01DX005 (ip), vehicle: Klucel (hydroxypropylcellulose) (HPC)) is reported as 94 % of control and 101 % of control and the T/C [1] is reported as 96 % of control and 109 % of control. For the same compound, the T/C [2] was 110 % of control and 119 % of control, the T/C [3] was 107 % of control and the T/C (dose: 16.0 mg/kg/injection, schedule: Q#A X002 (ip), vehicle: Klucel (hydroxypropylcellulose) (HPC)) was 110 % of control. The T/C [4] was 100 % of control, the T/C [5] was 97 % of control and 116 % of control and the T/C (dose: 32.0 mg/kg/injection, schedule: Q#A X002 (ip), vehicle: Klucel (hydroxypropylcellulose) (HPC)) was 96 % of control. The T/C [6] was 97 % of control and 103 % of control, the T/C (dose: 64.0 mg/kg/injection, schedule: Q01DX001 (oral), vehicle: Klucel (hydroxypropylcellulose) (HPC)) was 99 % of control and 113 % of control and the T/C [7] was 91 % of control. For the same compound, the T/C (dose: 64.0 mg/kg/injection, schedule: Q#A X002 (ip), vehicle: Klucel (hydroxypropylcellulose) (HPC)) was 94 % of control, the T/C [8] was 94 % of control and 115 % of control and the T/C (dose: 128.0 mg/kg/injection, schedule: Q01DX001 (oral), vehicle: Klucel (hydroxypropylcellulose) (HPC)) was 99 % of control and 110 % of control. For the same compound, the T/C (dose: 128.0 mg/kg/injection, schedule: Q#A X002 (ip), vehicle: Klucel (hydroxypropylcellulose) (HPC)) was 99 % of control, the T/C (dose: 256.0 mg/kg/injection, schedule: Q01DX001 (ip), vehicle: Klucel (hydroxypropylcellulose) (HPC)) was 91 % of control and 98 % of control and the T/C (dose: 256.0 mg/kg/injection, schedule: Q01DX001 (oral), vehicle: Klucel (hydroxypropylcellulose) (HPC)) was 101 % of control and 110 % of control. For the same compound, the T/C (dose: 512.0 mg/kg/injection, schedule: Q01DX001 (ip), vehicle: Klucel (hydroxypropylcellulose) (HPC)) was 86 % of control, the T/C (dose: 512.0 mg/kg/injection, schedule: Q01DX001 (oral), vehicle: Klucel (hydroxypropylcellulose) (HPC)) was 104 % of control and 114 % of control and the T/C (dose: 1024.0 mg/kg/injection, schedule: Q01DX001 (oral), vehicle: Klucel (hydroxypropylcellulose) (HPC)) was 100 % of control and 109 % of control.

For `CC[C@]1(O)C[C@H]2CN(CCc3c([nH]c4ccccc34)[C@@](C(=O)OC)(c3cc4c(cc3OC)N(C=O)[C@H]3[C@@](O)(C(=O)OC)[C@H](OC(C)=O)[C@]5(CC)C=CCN6CC[C@]43[C@@H]65)C2)C1`, the T/C (dose: 0.05 mg/kg/injection, schedule: Q01DX005 (ip), vehicle: saline) was 108 % of control, the T/C (dose: 0.1 mg/kg/injection, schedule: Q01DX005 (ip), vehicle: saline) was 103 % of control and the T/C (dose: 0.2 mg/kg/injection, schedule: Q01DX005 (ip), vehicle: saline) was 105 % of control. For the same compound, the T/C (dose: 0.4 mg/kg/injection, schedule: Q01DX005 (ip), vehicle: saline) was 124 % of control.

With `CC(CN1CC(=O)NC(=O)C1)N1CC(=O)NC(=O)C1` (stereo not drawn) the T/C (dose: 8.0 mg/kg/injection, schedule: Q01DX001 (ip), vehicle: Klucel (hydroxypropylcellulose) (HPC)) was 116 % of control, the T/C (dose: 8.0 mg/kg/injection, schedule: Q01DX005 (ip), vehicle: Klucel (hydroxypropylcellulose) (HPC)) was 91 % of control and 112 % of control and the T/C (dose: 16.0 mg/kg/injection, schedule: Q01DX001 (ip), vehicle: Klucel (hydroxypropylcellulose) (HPC)) was 87 % of control. The T/C [9] was 110 % of control, the T/C [4] was 89 % of control and 122 % of control and the T/C (dose: 32.0 mg/kg/injection, schedule: Q01DX005 (ip), vehicle: Klucel (hydroxypropylcellulose) (HPC)) was 105 % of control. For the same compound, the T/C [6] was 98 % of control and 118 % of control, the T/C [10] was 90 % of control and the T/C [8] was 95 % of control.

With `Nc1ncnc2c1ncn2C1OC(COP(=O)(O)O)C(O)C1O` (stereo not drawn) the T/C (dose: 100.0 mg/kg/injection, schedule: Q01DX005 (ip), vehicle: saline) was 104 % of control, the T/C (dose: 200.0 mg/kg/injection, schedule: Q01DX005 (ip), vehicle: saline) was 100 % of control and the T/C (dose: 800.0 mg/kg/injection, schedule: Q01DX005 (ip), vehicle: saline) was 119 % of control.

With `O=P1(NCCCl)OCCC(OO)N1CCCl` (stereo not drawn) the T/C (dose: 40.0 mg/kg/injection, schedule: Q01DX001 (ip), vehicle: Klucel (hydroxypropylcellulose) (HPC)) was 121 % of control, the T/C (dose: 80.0 mg/kg/injection, schedule: Q01DX001 (ip), vehicle: Klucel (hydroxypropylcellulose) (HPC)) was 121 % of control and the T/C (dose: 160.0 mg/kg/injection, schedule: Q01DX001 (ip), vehicle: Klucel (hydroxypropylcellulose) (HPC)) was 151 % of control.

With `O=C1c2c(O)ccc(O)c2C(=O)c2c(NCCNCCO)ccc(NCCNCCO)c21` the T/C (dose: 1.0 mg/kg/injection, schedule: Q01DX005 (ip), vehicle: saline with Tween-80) was 102 % of control, the T/C (dose: 2.0 mg/kg/injection, schedule: Q01DX005 (ip), vehicle: saline with Tween-80) was 96 % of control and the T/C [1] was 106 % of control.

With `CC(=O)OC(C1CO1)C(OC(C)=O)C1CO1` (stereo not drawn) the T/C (dose: 5.0 mg/kg/injection, schedule: Q01DX005 (ip), vehicle: saline) was 301 % of control, the T/C (dose: 6.0 mg/kg/injection, schedule: Q01DX005 (ip), vehicle: saline) was 365 % of control and the T/C (dose: 7.0 mg/kg/injection, schedule: Q01DX005 (oral), vehicle: saline) was 253 % of control. For the same compound, the T/C (dose: 10.0 mg/kg/injection, schedule: Q01DX005 (ip), vehicle: saline) was 301 % of control, the T/C (dose: 12.0 mg/kg/injection, schedule: Q01DX005 (ip), vehicle: saline) was 365 % of control and the T/C (dose: 14.0 mg/kg/injection, schedule: Q01DX005 (oral), vehicle: saline) was 365 % of control.

With `O=c1ccc2ccccc2o1` the T/C (dose: 90.0 mg/kg/injection, schedule: Q01DX005 (ip), vehicle: saline with Tween-80) was 101 % of control, the T/C (dose: 180.0 mg/kg/injection, schedule: Q01DX005 (ip), vehicle: saline with Tween-80) was 86 % of control and the T/C (dose: 720.0 mg/kg/injection, schedule: Q01DX005 (ip), vehicle: saline with Tween-80) was 97 % of control.

For `O=C1N(Cl)C(=O)C(c2ccc(Cl)cc2)(c2ccc(Cl)cc2)N1Cl`, the T/C (dose: 1.56 mg/kg/injection, schedule: Q01DX005 (ip), vehicle: Klucel (hydroxypropylcellulose) (HPC)) was 105 % of control, the T/C (dose: 3.12 mg/kg/injection, schedule: Q01DX005 (ip), vehicle: Klucel (hydroxypropylcellulose) (HPC)) was 110 % of control and the T/C (dose: 6.25 mg/kg/injection, schedule: Q01DX005 (ip), vehicle: Klucel (hydroxypropylcellulose) (HPC)) was 99 % of control. The T/C (dose: 12.5 mg/kg/injection, schedule: Q01DX005 (ip), vehicle: Klucel (hydroxypropylcellulose) (HPC)) was 112 % of control and the T/C (dose: 25.0 mg/kg/injection, schedule: Q01DX005 (ip), vehicle: Klucel (hydroxypropylcellulose) (HPC)) was 110 % of control.

With `OCCN1CCN(CC/C=C2/c3ccccc3Sc3ccc(C(F)(F)F)cc32)CC1` the T/C (dose: 12.5 mg/kg/injection, schedule: Q04DX003 (ip), vehicle: saline) was 115 % of control and the T/C (dose: 25.0 mg/kg/injection, schedule: Q04DX003 (ip), vehicle: saline) was 117 % of control.

For `COc1cc(C[C@H]2c3cc(OC)c(OC)cc3CCN2C)c(Oc2cc3c(cc2OC)-c2c(OC)c(OC)cc4c2[C@H](C3)N(C)CC4)cc1OC`, the T/C (dose: 12.5 mg/kg/injection, schedule: Q01DX005 (ip), vehicle: saline with Tween-80) was 97 % of control, the T/C (dose: 25.0 mg/kg/injection, schedule: Q01DX005 (ip), vehicle: saline with Tween-80) was 92 % of control and the T/C (dose: 50.0 mg/kg/injection, schedule: Q01DX005 (ip), vehicle: saline with Tween-80) was 100 % of control. For the same compound, the T/C (dose: 100.0 mg/kg/injection, schedule: Q01DX005 (ip), vehicle: saline with Tween-80) was 93 % of control.

For `C[C@@H](CN1CC(=O)NC(=O)C1)N1CC(=O)NC(=O)C1`, the T/C (dose: 1.0 mg/kg/injection, schedule: Q01DX005 (ip), vehicle: water) was 110 % of control, the T/C (dose: 4.0 mg/kg/injection, schedule: Q01DX005 (ip), vehicle: Klucel (hydroxypropylcellulose) (HPC)) was 103 % of control (2×) and 118 % of control and the T/C [1] was 103 % of control. The T/C (dose: 4.0 mg/kg/injection, schedule: Q01DX005 (ip), vehicle: water) was 106 % of control, the T/C [2] was 104 % of control and the T/C [9] was 106 % of control and 112 % of control and 120 % of control. The T/C [3] was 108 % of control, the T/C (dose: 16.0 mg/kg/injection, schedule: Q01DX005 (ip), vehicle: water) was 111 % of control and the T/C [5] was 112 % of control. The T/C (dose: 32.0 mg/kg/injection, schedule: Q01DX005 (ip), vehicle: saline) was 108 % of control and 111 % of control, the T/C [10] was 115 % of control and 121 % of control and the T/C [7] was 113 % of control. The T/C (dose: 64.0 mg/kg/injection, schedule: Q01DX005 (ip), vehicle: saline) was 119 % of control and 121 % of control, the T/C (dose: 64.0 mg/kg/injection, schedule: Q01DX005 (ip), vehicle: water) was 116 % of control and the T/C (dose: 128.0 mg/kg/injection, schedule: Q01DX005 (ip), vehicle: saline) was 120 % of control.
